From patent US10786503B2, “Treatment of adipocytes” (Melior Pharmaceuticals I, Inc., priority 2017, dated 2020)
Blank lines part the entries; values can stand above or below the molecule they belong to.

Experiments:
[1] = test system: human adipocytes; experiment: Beige adipocyte gene expression by RT-PCR in primary cultured human adipocytes; format: cell-based
Method: (§1) Human adipocyte precursor cells isolated from subcutaneous abdominal fat were purchased from LaCell, LLC, New Orleans, La. Cells were seeded and grown to confluence in DMEM/F12 with 10% heat inactivated FBS. Differentiation to mature adipocytes was induced in medium composed of 70% DMEM and 30% DMEMF12 supplemented with 3% FBS, 1 μM dexamethasone (Sigma D4902), […] biotin (Sigma B4639), 100 nM insulin (Sigma 15500), 20 μM pantothenate (Sigma P5155), 5 μM rosiglitazone (AK Scientific F325) and […] (Sigma 15879) for four days. Cells were maintained in medium composed of 70% DMEM and 30% DMEMF12 supplemented with 3% FBS, 1 μM dexamethasone, 33 μM biotin, 100 nM insulin, and 20 NM pantothenate for seven days before experimental treatment.
A solution of 10 mM Compound 102 was prepared in DMSO and diluted to 60 μM or 30 μM in maintenance medium without dexamethasone for cell treatment. […]
(§2) Total RNA was isolated from adipocyte cultures grown in 12-well plates using Trizol and Qiagen RNAeasy kits. Reverse transcriptase and PCR were conducted in one reaction with the reverse PCR primer priming cDNA synthesis using SuperScript® III Platinum® One-Step Quantitative RT-PCR System with Rox from Invitrogen (11745). Predesigned Taqman primer-probe sets were purchased from Applied Biosystems for the following human transcript sequences: UCP1 (Hs249211), PPARGC1α (HS527078), PPARU (Hs103110), CPT1b (Hs439777), and GLUT4/SLC2A4 (Hs380691). Aplicons were designed to span an intron-exon junction to avoid amplification of genomic sequences. Each sample RT-PCR assay was conducted in duplicate.

[2] = Phase 2a clinical trial of Compound 102 (fasting plasma glucose, body weight); format: in vivo, human
Method: This Phase 2a clinical trial was conducted in the U.S. (103 subjects) and Korea (27 subjects). […] Subjects were treated with one of four active doses (100 mg once-daily (qd), 100 mg twice-daily (bid), 200 mg qd, or 200 mg bid) of Compound 102 or placebo for 4 weeks after having 3 weeks of placebo run-in. […] Body weights, as secondary endpoints, were measured at Day 1 and Day 29 and at the follow-up visit 1 week after treatment stopped, at Day 35. […] The effect was most pronounced in the U.S. subjects and in the 100 qd dose group.

[3] = test system: UCP-1 adipose tissue protein; experiment: UCP-1 adipose tissue protein in db/db mice (Western blot densitometry); format: in vivo; conditions: 100 mg/kg qd for 3 weeks, tissue 4 hours after last dose, FIG. 10
Method: Adipose tissue was collected 4 hours after the last dose of Compound 102.

[4] = test system: primary cultured human adipocytes; experiment: GLUT4 and UCP1 protein expression in primary cultured human adipocytes; format: cell-based; conditions: 7-day treatment period
Method: as §1
A solution of 10 mM Compound 102 was prepared in DMSO and diluted to 60 μM or 30 μM in maintenance medium without dexamethasone for cell treatment. In some experiments, cells were treated with 20 μM menthol (Sigma M2772).

[5] = test system: Compound 102-induced UCP1 expression; experiment: Effect of inhibitors on Compound 102-induced UCP1 expression; format: cell-based, human; conditions: over 4 days; LY294002 20 NM, H89 20 μM; FIG. 9
Method: as §1
as §2, with “Each sample RT-PCR assay was conducted in duplicate.” left out

[6] = Rodent oral glucose tolerance test; format: in vivo; conditions: FIG. 13
Text: In contrast, menthol potentiates the insulin sensitizing action of Compound 102 in a rodent oral glucose tolerance test.

[7] = human adipocytes, day 4, FIG. 3

expression of TRPM8 menthol receptor mRNA ([1]; FIG. 8): induced | expression of Adipose Triglyceride Lipase (ATGL) [1, 7]: significant increases | expression of Carnitine palmitoyltransferase-Ib (CPT-1b) [1, 7]: significant increases | expression of Transient Potential Melastatin 8 Receptor (TRPM8R) [1, 7]: significant increases
Structure (SMILES): Cc1cccc(Oc2c[nH]c(=O)[nH]c2=O)c1 [Compound 102, 5-(m-tolyloxy)pyrimidine-2,4(1H,3H)-dione]
GLUT4 mRNA ([1]; 7-day treatment period, FIG. 4): continued to increase | UCP1 mRNA ([1]; 7-day treatment period, FIG. 4): continued to increase | expression of the UCP1 activator PGC-1β ([1]; FIG. 7): induced | expression of the UCP1 activator PPARα ([1]; FIG. 7): induced | expression of GLUT4 [1, 7]: significant increases | expression of UCP-1 [1, 7]: significant increases | body weight loss over the 4-week treatment period ([2]; Day 1 to Day 29, secondary endpoint): statistically significant improvements in body weight loss | body weight 1 week after treatment (Day 35) compared to Day 29 ([2]; follow-up 1 week after treatment stopped, FIG. 2): all groups except for the 200 mg bid group showed continued loss | fasting plasma glucose (FPG) ([2]; subjects with HbA1c 7-10%, 100 mg qd, 100 mg bid, 200 mg qd or 200 mg bid for 4 weeks, FIG. 1): progressive reduction | levels of UCP-1 adipose tissue protein [3]: Increased levels | expression of GLUT4 protein ([4]; FIG. 5): continued to exist | expression of UCP1 protein ([4]; FIG. 6): continued to exist

Structure (SMILES): O=S(=O)(NCCNC/C=C/c1ccc(Br)cc1)c1cccc2cnccc12 [Compound H89]
Compound 102-induced UCP1 mRNA in presence of inhibitor [5]: reduced UCP1 mRNA to levels of unstimulated controls or lower

Structure (SMILES): COc1cc(CN(CCN)C(=O)OC(C)c2ccccc2)ccc1OCc1ccccc1 (centres unmarked) [PBMC]
Compound 102-induced UCP1 mRNA in presence of inhibitor [5]: reduced UCP1 mRNA to levels of unstimulated controls or lower

Structure (SMILES): CC1CCC(C(C)C)C(O)C1 (centres unmarked) [menthol, reference compound]
UCP1 expression ([1]; 7 day treatment, 30 μM menthol, 30 NM Compound 102, versus Compound 102 alone, FIG. 12 panel a): did not induce expression | insulin sensitization or glycemic control [6]: does effect insulin sensitization or glycemic control
